Two compounds from US10473670B2 (University of Kentucky Research Foundation, priority 2016, dated 2019) can be followed below.

One test concerns FHs74Int cells. The test is described as follows: In vitro FA absorption (BODIPY FL C16) in FHs74Int cells. It is filed as cell-based, human. The settings on record: AICAR 1 mM 3 h, BODIPY FL C16 15 min.
For test [1], the system named is mTORC1 and ERK1/2 signaling. The test can be described thus: Western blot of p-S6K1 and p-ERK1/2 in BON cells. Format: cell-based, human. The settings on record: AICAR 3 h. On the procedure: (§1) FIGS. 16A-D show graphs and images illustrating Cross-talk of AMPK and mTORC1 signaling. A. Diagram of cross-talk of AMPK and mTORC1 signaling. B. Western blot analysis of BON cells treated with or without AICAR (left panel) or 1 mM AICAR and CC (10 μM) (right panel) for 3 h. C. NT EIA (upper panel) and western blotting (lower panel) on BON cells expressing control vector and myc-raptor S722A/S792A treated with AICAR (1 mM) for 3 h. D. NT EIA (upper panel) and western blotting (lower panel) on BON cells expressing control vector and NTC and TSC2 siRNA treated with AICAR (1 mM) for 3 h. *p<0.05 vs. control in vector, †p<0.05 vs. AICAR in vector (C); *p<0.05 vs. control in NTC siRNA, †p<0.05 vs. control in NTC siRNA, ‡ p<0.05 vs. AICAR in NTC siRNA (D). n=6. All data are mean+/−SD.
AMPK activation inhibits mTORC1 through raptor, a component of mTORC1, or TSC2, a negative regulator of mTORC1 signaling. […] Moreover, a stable BON overexpression cell line was generated with a mutant raptor vector in which both Ser722 and Ser792 (AMPK phosphorylation sites) are replaced by alanine. […] Together, these findings further indicate the interaction of AMPK, mTORC1 and ERK signaling in the regulation of NT secretion.

The subject of another test is BON cells. The test is described as follows: NT secretion from BON cells (NT EIA). It is filed as cell-based, human. As to the method:
as §1, with “FIGS. 14A-C show graphs and images illustrating that FFA activates AMPK signaling and increases NT secretion. A. Plasma NT of male C57BL/6 mice (5-mo-old, n=5) 1 h after olive oil (OO) oral gavage. *p<0.05 vs. NC; n=5. B. NT EIA (upper panels) and western blotting (lower panels) on BON cells treated with or without OA for 1 h. C. NT EIA (upper panels) and western blotting (lower panels) on QGP-1 cells treated with or without OA for 1 h. *p<0.05 vs. control; n=6. All data are mean+/-SD. FIGS.” for “FIGS.”, “[…]/[…]” for “S722A/S792A”, “mean+/-SD. […]” for “mean+/−SD.”

The subject of test [2] is AMPK. The test can be described thus: Western blot of p-AMPK in FHs 74 Int cells. It is filed as cell-based, human. The settings on record: FHs 74 Int cells; AICAR 1 mM 2 h, oleate 0.1 mM 1 h.
Protocol: G. Human small intestinal cells (FHs74Int) (left panel) and RIE-1 cells (right panel) were treated with the indicated concentrations of oleate for 1 h and lysates were analyzed by western blotting. […] All data are mean+/−SD. Experiments in vitro were at least repeated three times.
The subject of test [3] is AMPK. The test is described as follows: Western blot of p-AMPK in STC-1 cells. It is filed as cell-based, mouse. The settings on record: agonists 1 μM, 90 min, or OA. The text has this: (§2) FIGS. 15A-B show graphs and images illustrating that FFAR1 and FFAR4 agonists increase AMPK activity. A. NT IF (left panel), NT EIA (middle panel, *p<0.05 vs. control) and western blotting (right panel) of STC-1 cells. B. Real-time PCR. GAPDH was used as the internal control (BON cell expression was arbitrarily set at 1). All data are mean+/−SD.
(§3) FFAR1 (previously known as GPR40) and FFAR4 (previously known as GPR120) are medium- to long-chain FFA G-protein-coupled receptors that have been implicated in the regulation of energy homeostasis and hormone secretion.

In test [4] the test system is AMPK. The test is described as follows: Western blot of p-AMPK and p-ACC in BON cells. The settings on record: OA 1 h. It is filed as cell-based, human. As to the method:
(§4) FIGS. 14A-C show graphs and images illustrating that FFA activates AMPK signaling and increases NT secretion. A. Plasma NT of male C57BL/6 mice (5-mo-old, n=5) 1 h after olive oil (OO) oral gavage. *p<0.05 vs. NC; n=5. B. NT EIA (upper panels) and western blotting (lower panels) on BON cells treated with or without OA for 1 h. C. NT EIA (upper panels) and western blotting (lower panels) on QGP-1 cells treated with or without OA for 1 h. *p<0.05 vs. control; n=6. All data are mean+/−SD. Tissues and cells were lysed with lysis buffer (Cell Signaling Technology), and equal amounts of protein were resolved on 4-12% NuPAGE BisTris gels (Life Technologies) and electrophoretically transferred to polyvinylidene difluoride (PVDF) membranes; the membranes were incubated with primary antibodies overnight at 4° C. followed by secondary antibodies conjugated with horseradish peroxidase. Membranes were developed using chemiluminescence (ECL) Western Blotting System from GE Healthcare Life Science (Piscataway, N.J.) and Thermo Scientific (Waltham, Mass.).

In test [5] the test system is AMPK. The test is described as follows: Western blot of p-AMPK and p-ACC in QGP-1 cells. The settings on record: OA 1 h. Format: cell-based, human. As to the method:
as §4

The next test concerns QGP-1 cells. The test is described as follows: NT secretion from QGP-1 cells (NT EIA). It is filed as cell-based, human. Conditions: OA 1 h. On the procedure:
FIGS. 14A-C show graphs and images illustrating that FFA activates AMPK signaling and increases NT secretion. A. Plasma NT of male C57BL/6 mice (5-mo-old, n=5) 1 h after olive oil (OO) oral gavage. *p<0.05 vs. NC; n=5. B. NT EIA (upper panels) and western blotting (lower panels) on BON cells treated with or without OA for 1 h. C. NT EIA (upper panels) and western blotting (lower panels) on QGP-1 cells treated with or without OA for 1 h. *p<0.05 vs. control; n=6. All data are mean+/−SD. Fifty μl of media were used to measure NT levels using NT EIA Kit from Phoenix Pharmaceuticals (Burlingame, Calif.) as described previously^30-33.

The subject of the next test is STC-1 cells. The test can be described thus: NT release from STC-1 cells (NT EIA). It is filed as cell-based, mouse. The settings on record: OA 0.25 mM, phorbol myristate acetate 100 nM.
Excerpt: as §2, §3

Protocol for FHs74Int cells: All data are mean+/−SD. Experiments in vitro were at least repeated three times.
For in vitro FA absorption or lipid accumulation studies, FHs74Int and RIE-1 cells were incubated with either bovine serum albumin (BSA) (Sigma-Aldrich) or BSA-conjugated BODIPY® FL C16 (4,4-Difluoro-5,7-Dimethyl-4-Bora-3a,4a-Diaza-s-Indacene-3-Hexadecanoic Acid) (Life Technologies) for 15 min. BSA-conjugated oleate sodium was also used to treat cells for 1 h; cells were then stained with BODIPY® 493/503 (4,4-Difluoro-1,3,5,7,8-Pentamethyl-4-Bora-3a,4a-Diaza-s-Indacene) (Life Technologies). Images were observed under an FV1000 Olympus confocal microscope with a ×60, 1.35-numerical aperture oil objective (Olympus, Tokyo, Japan). Images were analyzed with Olympus FV10-ASW2.1 software. To quantify green intensity, 3 images were taken at consistent conditions and 10 cells from each image were analyzed using the area tool. […] Cells were collected, lysed and triglyceride content was measured by Triglyceride Determination Kit (Sigma-Aldrich). All experiments were carried in serum-free medium and fatty acid-free BSA was used at 0.1%.

For `NC(=O)c1ncn([C@@H]2O[C@H](CO)[C@@H](O)[C@H]2O)c1N` [AICAR, 5-aminoimidazole-4-carboxamide-1-β-D-ribofuranoside], the FA absorption entry in the test on FHs74Int cells is recorded as “concomitantly decreased FA absorption”. Further, in [1], the “expression of p-S6K1” value was “decreased expression of p-S6K1” and the p-ERK1/2 entry was “increased p-ERK1/2”. For the same compound, the NT secretion entry with BON cells (AICAR 1 mM 3 h) is “stimulated NT secretion”. In addition, in the test with AMPK [2], the “oleate-stimulated p-AMPK” value was “further increased oleate-stimulated p-AMPK”.
In the case of `CCCCCCCC/C=C\CCCCCCCC(=O)O` [OA, oleic acid], in the test with AMPK [3], the p-AMPK expression entry is on record as “increased p-AMPK expression”. Further, the “phosphorylation of AMPK (p-AMPK)” value with AMPK [4] and with AMPK [5] was “increased phosphorylation” in each case. Also, the “phosphorylation of acetyl-CoA carboxylase (p-ACC)” value with AMPK [4] and in the test on AMPK [5] was “increased phosphorylation” each time. Besides, the NT secretion result in the test on QGP-1 cells and with BON cells (OA 1 h) was “stimulated NT secretion” throughout. In addition, in the test with STC-1 cells, the NT release result is “stimulated NT release”.
